Data as given in ChEMBL document CHEMBL5316343, “Design, Synthesis, and Biological Evaluation of a Potent Dual EZH2-BRD4 Inhibitor for the Treatment of Some Solid Tumors” (J Med Chem, 2023).
pIC50: −log10 of the molar value.

Key:
[1] = target: Bromodomain-containing protein 4 (Homo sapiens, UniProt O60885); assay: Inhibition of BRD4 (unknown origin) by HTRF analysis
[2] = target: Histone-lysine N-methyltransferase EZH2 (Homo sapiens, UniProt Q15910); assay: Inhibition of EZH2 (unknown origin) by radiometric assay
Sequence of Histone-lysine N-methyltransferase EZH2 (Q15910 whole entry): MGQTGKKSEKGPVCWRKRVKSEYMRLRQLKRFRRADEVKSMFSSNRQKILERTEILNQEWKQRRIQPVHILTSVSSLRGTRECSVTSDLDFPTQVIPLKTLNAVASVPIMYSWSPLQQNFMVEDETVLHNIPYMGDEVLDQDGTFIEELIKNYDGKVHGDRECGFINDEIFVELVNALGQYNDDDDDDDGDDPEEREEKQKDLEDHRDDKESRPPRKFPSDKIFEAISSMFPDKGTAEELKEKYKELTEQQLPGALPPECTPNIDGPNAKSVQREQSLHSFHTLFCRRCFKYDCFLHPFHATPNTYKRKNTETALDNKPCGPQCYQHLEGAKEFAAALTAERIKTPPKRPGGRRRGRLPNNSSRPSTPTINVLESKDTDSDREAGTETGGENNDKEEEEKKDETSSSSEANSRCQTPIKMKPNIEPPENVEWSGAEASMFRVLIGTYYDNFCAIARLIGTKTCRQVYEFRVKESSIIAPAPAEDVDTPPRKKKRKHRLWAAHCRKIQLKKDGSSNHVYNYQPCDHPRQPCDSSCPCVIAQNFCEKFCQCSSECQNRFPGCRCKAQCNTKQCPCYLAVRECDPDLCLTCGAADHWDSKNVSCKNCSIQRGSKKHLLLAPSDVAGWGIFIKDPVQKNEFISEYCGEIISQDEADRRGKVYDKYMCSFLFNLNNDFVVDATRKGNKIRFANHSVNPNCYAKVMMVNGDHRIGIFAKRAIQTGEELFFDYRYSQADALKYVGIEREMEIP

Compound	pIC50 [1]	pIC50 [2]
CCC(C)n1ccc2c(C(=O)NCc3c4c(c(C)[nH]c3=O)CCCC4)cc(-c3cn(C)c(=O)c4[nH]ccc34)cc21 (configuration not stated)	< 6.52	8.28
Cc1cc(C)c(CNC(=O)c2cc(-c3cn(C)c(=O)c4[nH]ccc34)cc3c2ccn3CC2CCCCC2)c(=O)[nH]1	6.73	7.20
Cc1cc(C)c(CNC(=O)c2cc(-c3cn(C)c(=O)c4[nH]ccc34)cc3[nH]ccc23)c(=O)[nH]1	< 6.52	7.08
CCCC(C)n1ccc2c(C(=O)NCc3c(C)cc(C)[nH]c3=O)cc(-c3cn(C)c(=O)c4[nH]ccc34)cc21 (configuration not stated)	6.76	8.55
CCC(C)n1cc(C)c2c(C(=O)NCc3c4c(c(C)[nH]c3=O)CCCC4)cc(-c3cn(C)c(=O)c4[nH]ccc34)cc21 (configuration not stated)	< 6.52	8.10
CCCC(C)n1ccc2c(C(=O)NCc3c4c(c(C)[nH]c3=O)CCCC4)cc(-c3cn(C)c(=O)c4[nH]ccc34)cc21 (configuration not stated)	< 6.52	8.03
Cc1cc(C)c(CNC(=O)c2cc(-c3cn(C)c(=O)c4[nH]ccc34)cc3c2c(C)cn3CC2CCCCC2)c(=O)[nH]1	< 6.52	7.92

Second part, the molecule after the results:

pIC50 [1]	pIC50 [2]	Compound
< 6.52	8.96	CCC(C)n1cc(C)c2c(C(=O)NCc3c(C)cc(C)[nH]c3=O)cc(-c3cn(C)c(=O)c4[nH]ccc34)cc21 (configuration not stated)
6.81	8.52	CCC(CC)n1ccc2c(C(=O)NCc3c(C)cc(C)[nH]c3=O)cc(-c3cn(C)c(=O)c4[nH]ccc34)cc21
< 6.52	7.10	Cc1[nH]c(=O)c(CNC(=O)c2cc(-c3cn(C)c(=O)c4[nH]ccc34)cc3c2ccn3CC2CCCCC2)c2c1CCCC2
< 6.52	< 7.00	Cc1[nH]c(=O)c(CNC(=O)c2cc(-c3cn(C)c(=O)c4[nH]ccc34)cc3[nH]cc(C)c23)c2c1CCCC2
